# Reference: patent US20260217677A1, “ORGANIC COMPOUNDS AS NLRP3 INHIBITORS” (KODIAK SCIENCES, INC., priority 2023, published 2026)
# Test system: IL-1β release in U937 cells after NLRP3 activation
# Assay: IL-1β release inhibition in U937 cells (MSD V-Plex)
# Conditions: Homo sapiens, U-937, read-out: IL-1β IC50, Table 3; PMA-differentiated U937 cells, 1 μg/mL LPS 3 h, compound 30 min, 10 mM nigericin 1 h
row,IC50,Compound
1,0.005 to 0.05 µM,"O=C(CN1CCC[C@@H](Nc2nnc(-c3ccc(C(F)(F)F)cc3O)c3c2COC3)C1)N1CC(O)C1 [Compound 22, (R)-2-(3-((4-(2-Hydroxy-4-(trifluoromethyl)phenyl)-5,7-dihydrofuro[3,4-d]pyridazin-1-yl)amino)piperidin-1-yl)-1-(3-hydroxyazetidin-1-yl)ethan-1-one]"

# Same assay, conditions: Homo sapiens, U-937, read-out: IL-1β IC50, Table 4; PMA-differentiated U937 cells, 1 μg/mL LPS 3 h, compound 30 min, 10 mM nigericin 1 h
row,IC50,Compound
1,> 0.5 µM,"Cc1cc(N[C@@H]2CCCN(CC(=O)NC3CNC3)C2)nnc1-c1ccc(C(F)(F)F)cc1O [Example 94, (R)—N-(Azetidin-3-yl)-2-(3-((6-(2-hydroxy-4-(trifluoromethyl)phenyl)-5-methylpyridazin-3-yl)amino)piperidin-1-yl)acetamide]"
2,0.05 to 0.5 µM,"Cc1cc(N[C@@H]2CCCN(CC(=O)N3CCC4(CC3)CNC4)C2)nnc1-c1ccc(C(F)(F)F)cc1O [Example 102, (R)-2-(3-((6-(2-Hydroxy-4-(trifluoromethyl)phenyl)-5-methylpyridazin-3-yl)amino)piperidin-1-yl)-1-(2,7-diazaspiro[3.5]nonan-7-yl)ethan-1-one]"
3,0.005 to 0.05 µM,"Cc1cc(N[C@@H]2CCCN(CC(=O)N3CCN[C@@H](C)C3)C2)nnc1-c1ccc(C(F)(F)F)cc1O [Example 111, 2-((R)-3-((6-(2-Hydroxy-4-(trifluoromethyl)phenyl)-5-methylpyridazin-3-yl)amino)piperidin-1-yl)-1-((S)-3-methylpiperazin-1-yl)ethan-1-one]"
4,0.005 to 0.05 µM,"Cc1cc(N[C@@H]2CCCN(CC(=O)N3C[C@H]4CNC[C@H]4C3)C2)nnc1-c1ccc(C(F)(F)F)cc1O [Example 112, 1-((3aR,6aS)-Hexahydropyrrolo[3,4-c]pyrrol-2 (1H)-yl)-2-((R)-3-((6-(2-hydroxy-4-(trifluoromethyl)phenyl)-5-methylpyridazin-3-yl)amino)piperidin-1-yl)ethan-1-one]"
5,0.005 to 0.05 µM,Cc1cc(N[C@@H]2CCCN(CC(=O)N3CCC4(CC3)CC(N)C4)C2)nnc1-c1ccc(C(F)(F)F)cc1O [Example 82]
